# In patent US4800199A, “3-[2-thiazoloamino]-8-oxo-7-substituted-5-thia-1-a zabicyclo-[4.2.0]oct-2-ene-2-carboxylic acid and salts thereof and diphenylmethyl esters thereof” (American Cyanamid Company, priority 1986, dated 1989):
# Assays:
# Assay in all cases: In vitro antibacterial activity, Mueller-Hinton agar dilution
# Assay type in all cases: cell-based
# [1] = tested on: Acinetobacter CMC 83-89; conditions: CMC8389, read-out: Minimal Inhibitory Concentration
# Source text: (§1) The results of this test on representative compounds of this invention appear in Table I.
# [2] = tested on: Acinetobacter IO 83-49; conditions: IO8349, read-out: Minimal Inhibitory Concentration
# Source text: as §1
# [3] = tested on: Bacillus subtilis ATCC 6633; conditions: ATCC6633, read-out: Minimal Inhibitory Concentration
# Source text: as §1
# [4] = tested on: Citrobacter diversis K83-24; conditions: K8324, read-out: Minimal Inhibitory Concentration
# Source text: as §1
# [5] = tested on: Citrobacter freundii IO 83-13; conditions: IO8313, read-out: Minimal Inhibitory Concentration
# Source text: as §1
# [6] = tested on: Enterobacter aerogenes IO 83-44; conditions: Klebsiella aerogenes, IO8344, read-out: Minimal Inhibitory Concentration
# Source text: as §1
# [7] = tested on: Enterobacter cloacae CMC 84-4; conditions: CMC844, read-out: Minimal Inhibitory Concentration
# Source text: as §1
# [8] = tested on: Enterococcus CMC 83-53; conditions: CMC8353, read-out: Minimal Inhibitory Concentration
# Source text: as §1
# [9] = tested on: Escherichia coli 311; conditions: read-out: Minimal Inhibitory Concentration
# Source text: as §1
# [10] = tested on: Escherichia coli ATCC 25922; conditions: ATCC25922, read-out: Minimal Inhibitory Concentration
# Source text: as §1
# [11] = tested on: Escherichia coli CMC 84-11; conditions: CMC8411, read-out: Minimal Inhibitory Concentration
# Source text: as §1
# [12] = tested on: Klebsiella oxytoca IO 83-1; conditions: IO831, read-out: Minimal Inhibitory Concentration
# Source text: as §1
# [13] = tested on: Klebsiella pneumoniae AD; conditions: read-out: Minimal Inhibitory Concentration
# Source text: as §1
# [14] = tested on: Klebsiella pneumoniae CMC 84-5; conditions: CMC845, read-out: Minimal Inhibitory Concentration
# Source text: as §1
# [15] = tested on: Micrococcus lutea PC 1001; conditions: PC1001, read-out: Minimal Inhibitory Concentration
# Source text: as §1
# [16] = tested on: Morganella morganii IO 83-18; conditions: IO8318, read-out: Minimal Inhibitory Concentration
# Source text: as §1
# [17] = tested on: Proteus rettgheri IO 83-21; conditions: read-out: Minimal Inhibitory Concentration
# Source text: as §1
# [18] = tested on: Providencia stuartii CMC 83-82; conditions: CMC8382, read-out: Minimal Inhibitory Concentration
# Source text: as §1
# [19] = tested on: Pseudomonas aeruginosa 12-4-4; conditions: 1244, read-out: Minimal Inhibitory Concentration
# Source text: as §1
# [20] = tested on: Pseudomonas aeruginosa ATCC 27853; conditions: ATCC27853, read-out: Minimal Inhibitory Concentration
# Source text: as §1
# [21] = tested on: Pseudonmonas aeruginosa CMC 83-19; conditions: read-out: Minimal Inhibitory Concentration
# Source text: as §1
# [22] = tested on: Serratia marcescens CMC 83-27; conditions: CMC8327, read-out: Minimal Inhibitory Concentration
# Source text: as §1
# [23] = tested on: Serratia marcescens F-35; conditions: F35, read-out: Minimal Inhibitory Concentration
# Source text: as §1
# [24] = tested on: Staphylococcus aureus ATCC 25923; conditions: ATCC25923, read-out: Minimal Inhibitory Concentration
# Source text: as §1
# [25] = tested on: Staphylococcus aureus SSC 82-20; conditions: SSC8220, read-out: Minimal Inhibitory Concentration
# Source text: as §1
# [26] = tested on: Staphylococcus aureus SSC 82-24; conditions: SSC8224, read-out: Minimal Inhibitory Concentration
# Source text: as §1
# [27] = tested on: Staphylococcus aureus SSC 82-26; conditions: SSC8226, read-out: Minimal Inhibitory Concentration
# Source text: as §1
# [28] = tested on: Staphylococcus aureus SSC 82-31; conditions: SSC8231, read-out: Minimal Inhibitory Concentration
# Source text: as §1
# [29] = tested on: Staphylococcus aureus SSC 82-57; conditions: SSC8257, read-out: Minimal Inhibitory Concentration
# Source text: as §1
# [30] = tested on: Staphylococcus epidermidis ATCC 12228; conditions: ATCC12228, read-out: Minimal Inhibitory Concentration
# Source text: as §1
# [31] = tested on: Staphylococcus epidermidis CMC 83-133; conditions: CMC83133, read-out: Minimal Inhibitory Concentration
# Source text: as §1
# [32] = tested on: Streptococcus faecalis ATCC 29212; conditions: Enterococcus faecalis, ATCC29212, read-out: Minimal Inhibitory Concentration
# Source text: as §1
MIC [1] [µg/mL],MIC [2] [µg/mL],MIC [3] [µg/mL],MIC [4] [µg/mL],MIC [5] [µg/mL],MIC [6] [µg/mL],MIC [7] [µg/mL],MIC [8] [µg/mL],MIC [9] [µg/mL],MIC [10] [µg/mL],MIC [11] [µg/mL],MIC [12] [µg/mL],MIC [13] [µg/mL],MIC [14] [µg/mL],MIC [15] [µg/mL],MIC [16] [µg/mL],MIC [17] [µg/mL],MIC [18] [µg/mL],MIC [19] [µg/mL],MIC [20] [µg/mL],Structure (SMILES),other results
> 128,> 128,8,> 128,> 128,> 128,> 128,> 128,> 128,> 128,> 128,> 128,> 128,> 128,16,> 128,128,> 128,> 128,> 128,"CC(=O)OCC1=C(C(=O)O)N2C(=O)[C@@H](Nc3nc(C(=O)O)cs3)[C@H]2SC1 [Example 7, (6R-trans)-3-[(Acetyloxy)methyl]-7-[(4-carboxy-2-thiazolyl)amino]-8-oxo-5-thia-1-azabicyclo[4.2.0]oct-2-ene-2-carboxylic acid]",MIC [21]: > 128 µg/mL; MIC [22]: > 128 µg/mL; MIC [23]: > 128 µg/mL; MIC [24]: 8 µg/mL; MIC [25]: 16 µg/mL; MIC [26]: > 128 µg/mL; MIC [27]: 8 µg/mL; MIC [28]: 8 µg/mL; MIC [29]: 128 µg/mL; MIC [30]: 4 µg/mL; MIC [31]: 2 µg/mL; MIC [32]: > 128 µg/mL
> 128,> 128,0.5,> 128,> 128,> 128,> 128,64,> 128,> 128,> 128,> 128,> 128,> 128,1,> 128,64,> 128,> 128,> 128,"CC(=O)OCC1=C(C(=O)O)N2C(=O)[C@@H](Nc3nc(C(=O)OCC(Cl)(Cl)Cl)cs3)[C@H]2SC1 [Example 9, (6R-trans)-3-[(Acetyloxy)methyl]-8-oxo-7-[[4-[(2,2,2-trichloroethoxy)carbonyl]-2-thiazolyl]amino]-5-thia-1-azabicyclo[4.2.0]oct-2-ene-2-carboxylic acid]",MIC [21]: > 128 µg/mL; MIC [22]: > 128 µg/mL; MIC [23]: > 128 µg/mL; MIC [24]: 0.12 µg/mL; MIC [25]: 0.25 µg/mL; MIC [26]: > 128 µg/mL; MIC [27]: 0.12 µg/mL; MIC [28]: ≤ 0.06 µg/mL; MIC [29]: 128 µg/mL; MIC [30]: ≤ 0.06 µg/mL; MIC [31]: ≤ 0.06 µg/mL; MIC [32]: 16 µg/mL
> 128,> 128,8,> 128,> 128,> 128,> 128,> 128,> 128,> 128,> 128,> 128,> 128,> 128,8,> 128,> 128,> 128,> 128,> 128,"CC(=O)OCC1=C(C(=O)O)N2C(=O)[C@@H](Nc3nc(C(=O)NCc4ccccc4)cs3)[C@H]2SC1 [Example 11, (6R-trans)-3-[(Acetyloxy)methyl]-8-oxo-7-[[4-[[(phenylmethyl)amino]carbonyl]-2-thiazolyl]amino]-5-thia-1-azabicyclo[4.2.0]oct-2-ene-2-carboxylic acid]",MIC [21]: > 128 µg/mL; MIC [22]: > 128 µg/mL; MIC [23]: > 128 µg/mL; MIC [24]: 4 µg/mL; MIC [25]: 8 µg/mL; MIC [26]: > 128 µg/mL; MIC [27]: 4 µg/mL; MIC [28]: 4 µg/mL; MIC [29]: 128 µg/mL; MIC [30]: 2 µg/mL; MIC [31]: 2 µg/mL; MIC [32]: > 128 µg/mL
> 128,> 128,1,> 128,> 128,> 128,> 128,128,64,> 128,> 128,> 128,64,128,4,> 128,> 128,> 128,> 128,> 128,"CC(=O)OCC1=C(C(=O)O)N2C(=O)[C@@H](Nc3nc(C)cs3)[C@H]2SC1 [Example 12, (6R-trans)-3-[(Acetyloxy)methyl]-7-[(4-methyl-2-thiazolyl)amino]-8-oxo-5-thia-1-azabicyclo[4.2.0]oct-2-ene-2-carboxylic acid]",MIC [21]: > 128 µg/mL; MIC [22]: > 128 µg/mL; MIC [23]: > 128 µg/mL; MIC [24]: 4 µg/mL; MIC [25]: 4 µg/mL; MIC [26]: 64 µg/mL; MIC [27]: 4 µg/mL; MIC [28]: 4 µg/mL; MIC [29]: 128 µg/mL; MIC [30]: 2 µg/mL; MIC [31]: 2 µg/mL; MIC [32]: 128 µg/mL
